This note sets out measurements from US8203011B2, “3′,4′,5-trimethoxy flavone derivatives as stimulant of mucus secretion, method for the same, and pharmaceutical composition comprising the same” (Dong-A Pharm. Co., Ltd., priority 2007, dated 2012).

Test [1] deals with human mucoepidermoid pulmonary carcinoma cell line NCI-H292. In words: Mucin secretion (MUC4, MUC5AC) by ELISA in NCI-H292 cells. Type of test: cell-based. The note with it: 24 hours, read-out: % increase in mucin secretion vs. non-treated control group; for activation at 4 µg/mL: 4 μg/mL; for activation at 20 µg/mL: 20 μg/mL; for activation at 100 µg/mL: 100 μg/mL; for activation at 0.8 µg/mL: 0.8 μg/mL. The method, then: 2×10^5 cells/well of the human mucoepidermoid pulmonary carcinoma cell line NCI-H292 (ATCC, #CRL-1848) were seeded on a 96-well plate, and treated with 3′,4′,5-trimethoxy flavone derivatives at various concentrations of 0.16 to 100 μg/mL for 24 hours. Thereafter, secretion levels of representative transmembrane mucin MUC4 and secretory mucin MUC5AC were measured by enzyme-linked immunosorbent assay (ELISA).

Test [2] has as its system rabbit model of dry eye syndrome. In words: Rose Bengal assay of ocular surface damage in N-acetylcysteine-induced rabbit dry eye syndrome model. The format is in vivo, New Zealand White (NZW) rabbits. The note with it: 0.5% solution instilled into conjunctival sac 4 times/day (0.1 mL) for seven days; Mean ± S.D. The method, then: (§1) Male New Zealand White (NZW) rabbits were randomly assigned into two groups, each consisting of 5 animals. In order to induce dry eye syndrome, N-acetylcysteine was first dissolved at a concentration of 20% in physiological saline. Then, the rabbit's lower eyelid was pulled slightly away from the globe to form a cup shape and the above-prepared N-acetylcysteine solution was instilled into the conjunctival sac six times every 2 hours, resulting in establishment of an animal model of dry eye syndrome. 3′,4′,5-trimethoxy flavone derivatives were dissolved at a concentration of 0.5% in a 0.1N sodium hydroxide solution which was then titrated to pH 7.0 to 8.0 with 10% acetic acid. From the following day after induction of dry eye syndrome, the titrated 3′,4′,5-trimethoxy flavone derivatives were repeatedly instilled into conjunctival sacs of animals at a dose frequency of 4 times/day (0.1 mL/each time) for seven consecutive days. On the next day following the induction of dry eye syndrome and upon completion of the experiment, the degree of ocular surface damage was evaluated to calculate a damage decrease rate (%) using Rose Bengal assay, and mucus secretion in the conjunctiva was quantitatively analyzed using Alcian blue assay. More specifically referring to Rose Bengal assay, 10 μl of a 1% Rose Bengal solution was dropped into the eyes of animals, and distribution and intensity of Rose Bengal staining were scored according to the method disclosed in Urashima et al., Cornea, 23:613-9, 2004. For Alcian blue assay, the rabbit's conjunctivae were excised, weighed, stained with a 0.1% Alcian blue solution for 2 hours and then washed with a 0.25 M sucrose solution. Following extraction with a 0.5 M magnesium chloride solution, the absorbance was measured at 605 nm.

The test system is the same in test [3]. In words: Alcian blue assay of conjunctival mucus secretion in N-acetylcysteine-induced rabbit dry eye syndrome model. Type of test: in vivo, New Zealand White (NZW) rabbits. The note with it: 0.5% solution instilled 4 times/day (0.1 mL) for seven days; conjunctiva, absorbance at 605 nm; Mean ± S.D. The method, then:
as §1

On to `COc1ccc(-c2cc(=O)c3c(OC)cc(OCC(=O)NC(N)=O)cc3o2)cc1OC` [Example 10, 7-{(carbamylcarbamoyl)methyloxy}-3′,4′,5-trimethoxy flavone], for which, in test [1], the activation at 4 µg/mL was 6.7%, the activation at 20 µg/mL is 15.4% and the activation at 100 µg/mL amounted to 25.9%.

Turning to `COc1ccc(-c2cc(=O)c3c(OC)cc(OCC(=O)O)cc3o2)cc1OC.O` [7-carboxymethyloxy-3′,4′,5-trimethoxy flavone monohydrate], in test [2], the “Rose Bengal Assay Damage decrease rate (%)” value was found to be 88.5 ± 4.7 %. In test [1], the activation at 0.8 µg/mL worked out at 24.8%, the activation at 4 µg/mL was determined as 39.1%, the activation at 20 µg/mL was 52.5% and the activation at 100 µg/mL was determined as 75.9%. In addition, the “Alcian Blue Assay Absorbance/g tissue” value in test [3] was found to be 0.38 ± 0.08 Absorbance/g tissue.

With `COc1ccc(-c2cc(=O)c3c(OC)cc(OCC(N)=O)cc3o2)cc1OC` [Example 3, 7-{(carbamoyl)methyloxy}-3′,4′,5-trimethoxy flavone], in test [1], the activation at 0.8 µg/mL was found to be 2.2%, the activation at 4 µg/mL worked out at 6.6%, the activation at 20 µg/mL stood at 10.4% and the activation at 100 µg/mL was found to be 15.8%.

For `COc1ccc(-c2cc(=O)c3c(OC)cc(OCc4nnn[nH]4)cc3o2)cc1OC` [Example 1, 7-(tetrazol-5-ylmethyloxy)-3′,4′,5-trimethoxy flavone], in test [1], the activation at 0.8 µg/mL worked out at 18.7%, the activation at 4 µg/mL is 28.1%, the activation at 20 µg/mL came to 57.8% and the activation at 100 µg/mL is 52%.

Consider `COc1ccc(-c2cc(=O)c3c(OC)cc(OCC(=O)NS(N)(=O)=O)cc3o2)cc1OC` [Example 8, 7-{(aminosulfonylcarbamoyl)methyloxy}-3′,4′,5-trimethoxy flavone], for which, in test [1], the activation at 0.8 µg/mL came out at 4.4%, the activation at 4 µg/mL came to 10.2%, the activation at 20 µg/mL came to 15.4% and the activation at 100 µg/mL came out at 21.4%.

For the compound `COc1ccc(-c2cc(=O)c3c(OC)cc(OCC(=O)NS(C)(=O)=O)cc3o2)cc1OC` [Example 9, 7-{(methylsulfonylcarbamoyl)methyloxy}-3′,4′,5-trimethoxy flavone], the “Rose Bengal Assay Damage decrease rate (%)” value in test [2] worked out at 76.8 ± 8.4 %. Moreover, in test [1], the activation at 0.8 µg/mL turned out to be 9.7%, the activation at 4 µg/mL came out at 15.9%, the activation at 20 µg/mL amounted to 37.4% and the activation at 100 µg/mL came out at 43.3%. Also, in test [3], the “Alcian Blue Assay Absorbance/g tissue” value is given as 0.35 ± 0.13 Absorbance/g tissue.

For the compound `COc1ccc(-c2cc(=O)c3c(OC)cc(OCC(=O)NC(C)=O)cc3o2)cc1OC` [Example 12, 7-{(acetylcarbamoyl)methyloxy}-3′,4′,5-trimethoxy flavone], in test [1], the activation at 0.8 µg/mL was 15.2%, the activation at 4 µg/mL is 13.6%, the activation at 20 µg/mL is 20.5% and the activation at 100 µg/mL amounted to 30.2%.

For the compound `COc1ccc(-c2cc(=O)c3c(OC)cc(OCC(=O)NC#N)cc3o2)cc1OC` [Example 4, 7-{(N-cyanocarbamoyl)-methyloxy}-3′,4′,5-trimethoxy flavone], the “Rose Bengal Assay Damage decrease rate (%)” value in test [2] amounted to 83.8 ± 4.6 %. In test [1], the activation at 20 µg/mL came to 4.3% and the activation at 100 µg/mL stood at 25.2%. In addition, the “Alcian Blue Assay Absorbance/g tissue” value in test [3] stood at 0.24 ± 0.19 Absorbance/g tissue.

With `COc1ccc(-c2cc(=O)c3c(OC)cc(OCC(=O)NS(=O)(=O)c4ccccc4)cc3o2)cc1OC` [Example 5, 7-{(N-benzenesulfonylcarbamoyl)methyloxy}-3′,4′,5-trimethoxy flavone], the “Rose Bengal Assay Damage decrease rate (%)” value in test [2] came out at 70.1 ± 5.2 %. In addition, in test [1], the activation at 0.8 µg/mL came to 43.9%, the activation at 4 µg/mL turned out to be 45.4%, the activation at 20 µg/mL was found to be 35.4% and the activation at 100 µg/mL is 70.9%. Also, the “Alcian Blue Assay Absorbance/g tissue” value in test [3] is 0.32 ± 0.09 Absorbance/g tissue.
